The values that follow come from patent US11618747B2, “LXR modulators with bicyclic core moiety” (OrsoBio, Inc., priority 2018, dated 2023).

The target in assay [1] is T1, LXRβ ligand-binding domain (Homo sapiens, UniProt P55055, DUP175-175).
T1 construct: amino acids 156-461; NP009052; made in house; host or cells: E. coli
T1 sequence (P55055 with tags, fused parts or gaps DUP175-175 limits assumed): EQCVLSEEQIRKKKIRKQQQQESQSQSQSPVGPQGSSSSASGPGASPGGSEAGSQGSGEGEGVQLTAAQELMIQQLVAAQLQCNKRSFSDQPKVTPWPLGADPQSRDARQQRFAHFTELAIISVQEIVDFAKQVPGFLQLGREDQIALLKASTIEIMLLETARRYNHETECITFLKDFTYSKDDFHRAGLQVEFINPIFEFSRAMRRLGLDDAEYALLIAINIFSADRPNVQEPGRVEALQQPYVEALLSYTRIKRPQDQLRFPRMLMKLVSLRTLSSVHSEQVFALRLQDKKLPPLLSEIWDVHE
Nature of the assay: TR-FRETβ activity assay (NCoA3 coactivator peptide recruitment). Format: biochemical. As to conditions: TR-FRET, 1 μM 24(S)-25-epoxycholesterol prestimulation; read-out: FRETβ (EC50 range). The essentials: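 GST-tagged human LXRβ LBD (aa 156-461, E. coli) at 76 nM with 400 nM biotinylated NCoA3 peptide in Tris/HCl pH 6.8, 240 mM KCl, BSA, 0.002% Triton-X-100, plus 1 μM 24(S)-25-epoxycholesterol as prestimulating agonist. Compounds at 50 μM down to 0.002 μM, 1 h at 4 °C. Coactivator recruitment by TR-FRET (Tb cryptate/XL665, 615/665 nm), triplicates.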
In general terms: In TR-FRET formats the signal depends on donor and acceptor labels being close together.

In a further assay the target is T2, full length (FL) LXRβ (Homo sapiens, UniProt P55055, DUP175-175).
T2 construct: the full length (FL) proteins of LXRα (amino acids 1-447); NP005684; NP009052; expressed in transfected cells; host or cells: HEK293
T2 sequence (P55055 with tags, fused parts or gaps DUP175-175): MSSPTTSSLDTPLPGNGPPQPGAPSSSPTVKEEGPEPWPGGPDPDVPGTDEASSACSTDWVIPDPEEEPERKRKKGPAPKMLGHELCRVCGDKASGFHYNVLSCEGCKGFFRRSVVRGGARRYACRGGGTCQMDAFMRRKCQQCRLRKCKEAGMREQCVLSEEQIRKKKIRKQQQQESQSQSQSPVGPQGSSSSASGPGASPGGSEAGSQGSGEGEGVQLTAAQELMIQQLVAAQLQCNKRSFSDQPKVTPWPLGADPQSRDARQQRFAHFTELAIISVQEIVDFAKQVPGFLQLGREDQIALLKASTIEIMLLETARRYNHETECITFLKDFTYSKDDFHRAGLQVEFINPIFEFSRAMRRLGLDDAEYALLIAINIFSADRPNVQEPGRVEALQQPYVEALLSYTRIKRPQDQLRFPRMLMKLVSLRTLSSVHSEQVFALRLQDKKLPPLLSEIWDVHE
Nature of the assay: LXR Gal4 reporter transient transfection assay (FL-M2H Gal4β). The format is cell-based. As to conditions: HEK293 cells, full length LXRβ; read-out: FL-M2H Gal4β (EC50 range). The essentials: (§1)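 Luminescence readout: Firefly luciferase driven by GAL4 response elements reports LXR–cofactor interaction, normalised against cotransfected Renilla luciferase. The system used HEK293 cells expressing LXR full length or ligand-binding domain fused to the NFkB activation domain, with SRC1 or NCoR domains on GAL4 DBD; compound exposure was 16 h.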

The target in another assay is T3, full length (FL) LXRα (Homo sapiens, UniProt Q13133).
T3 construct: the full length (FL) proteins of LXRα (amino acids 1-447); NP005684; expressed in transfected cells; host or cells: HEK293
T3 sequence (Q13133 1-447): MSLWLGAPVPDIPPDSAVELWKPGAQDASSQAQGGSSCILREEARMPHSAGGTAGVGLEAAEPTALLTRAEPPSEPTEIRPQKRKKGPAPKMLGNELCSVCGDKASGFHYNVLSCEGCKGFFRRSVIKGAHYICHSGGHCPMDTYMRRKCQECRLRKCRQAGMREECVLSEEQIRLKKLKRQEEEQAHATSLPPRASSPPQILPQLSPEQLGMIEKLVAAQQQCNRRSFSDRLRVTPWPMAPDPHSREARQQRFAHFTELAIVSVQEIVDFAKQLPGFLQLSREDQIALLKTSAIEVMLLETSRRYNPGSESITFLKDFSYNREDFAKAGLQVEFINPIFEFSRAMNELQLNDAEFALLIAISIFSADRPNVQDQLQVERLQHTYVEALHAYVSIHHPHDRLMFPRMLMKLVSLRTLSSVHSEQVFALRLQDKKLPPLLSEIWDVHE
Nature of the assay: LXR Gal4 reporter transient transfection assay (FL-M2H Gal4α). The format is cell-based. To be noted: HEK293 cells, full length LXRα; read-out: FL-M2H Gal4α (EC50 range). In a few lines:
as §1

`N#Cc1ccccc1-c1c(-c2cccc(-c3ccc(C(=O)O)c(O)c3Cl)c2)n(S(=O)(=O)c2ccc(C(F)F)cc2)c2ccc(F)cc12` [11/32]: the EC50 (in assay [1]; at full length (FL) LXRβ; on full length (FL) LXRα) was under 100 nM throughout.

Turning to `N#Cc1cccc(F)c1-c1c(-c2cccc(-c3ccc(C(=O)O)cc3Cl)c2)n(S(=O)(=O)c2ccc(C(F)F)cc2)c2ccc(F)cc12` [11/34], the EC50 (in assay [1]; on full length (FL) LXRβ; on full length (FL) LXRα) was under 100 nM in each case.

As to `Cc1cccc(C(F)F)c1-c1c(-c2cccc(-c3ccc(C(=O)O)cc3Cl)c2)n(S(=O)(=O)c2ccc(C(F)F)cc2)c2ccc(F)cc12` [11/38], the EC50 (in assay [1]; on full length (FL) LXRβ; on full length (FL) LXRα) was under 100 nM each time.

On to `COc1cccnc1-c1c(-c2cccc(-c3ccc(C(=O)O)cc3Cl)c2)n(S(=O)(=O)c2ccc(C(F)F)cc2)c2ccc(F)cc12` [11/40], for which the EC50 is 100 to 1000 nM in assay [1], under 100 nM at full length (FL) LXRβ and under 100 nM on full length (FL) LXRα.

For the molecule `O=C(O)c1ccc(-c2cccc(-c3c(-c4ncccc4OC(F)F)c4cc(F)ccc4n3S(=O)(=O)c3ccc(C(F)F)cc3)c2)c(Cl)c1` [11/41], the EC50 (in assay [1]; at full length (FL) LXRβ; on full length (FL) LXRα) was under 100 nM in each case.

Turning to `N#CC1=C(c2c(-c3cccc(-c4ccc(C(=O)O)cc4Cl)c3)n(S(=O)(=O)c3ccc(C(F)F)cc3)c3ccc(F)cc23)CCCC1` [11/42], the concentration giving a half-maximal response (EC50) in assay [1] was over 10000 nM; on full length (FL) LXRβ it was 100 to 1000 nM; on full length (FL) LXRα it was 100 to 1000 nM.

Consider `O=C(O)c1ccc(-c2cccc(-c3c(-c4cccc5nncn45)c4cc(F)ccc4n3S(=O)(=O)c3ccc(C(F)F)cc3)c2)c(Cl)c1` [11/43], for which the concentration for a half-maximal effect (EC50) (in assay [1]; on full length (FL) LXRβ; at full length (FL) LXRα) was 100 to 1000 nM throughout.

With `O=C(O)c1ccc(-c2cccc(-c3c(-c4cccc5c4OCO5)c4cc(F)ccc4n3S(=O)(=O)c3ccc(C(F)F)cc3)c2)c(Cl)c1` [11/44], the concentration for a half-maximal effect (EC50) (in assay [1]; on full length (FL) LXRβ; on full length (FL) LXRα) was under 100 nM in each case.

Turning to `O=C(O)c1ccc(-c2cccc(-c3c(-c4cccc5nonc45)c4cc(F)ccc4n3S(=O)(=O)c3ccc(C(F)F)cc3)c2)c(Cl)c1` [11/45], the concentration for a half-maximal effect (EC50) (in assay [1]; on full length (FL) LXRβ; at full length (FL) LXRα) was under 100 nM in each case.

As for `COc1cc(-c2c(-c3cccc(-c4ccc(C(=O)O)cc4Cl)c3)n(S(=O)(=O)c3ccc(C(F)F)cc3)c3ccc(F)cc23)c2c(C#N)cnn2c1` [11/46], the EC50 (in assay [1]; on full length (FL) LXRβ; at full length (FL) LXRα) was under 100 nM in each case.

Consider `Cn1cccc(-c2c(-c3cccc(-c4ccc(C(=O)O)cc4Cl)c3)n(S(=O)(=O)c3ccc(C(F)F)cc3)c3ccc(F)cc23)c1=O` [11/47], for which the concentration giving a half-maximal response (EC50) (in assay [1]; on full length (FL) LXRβ; at full length (FL) LXRα) was 100 to 1000 nM each time.

As to `N#Cc1cccc(C#N)c1-c1c(-c2cccc(-c3ccc(C(=O)O)c(F)c3F)c2)n(S(=O)(=O)c2ccc(C(F)F)cc2)c2ccc(F)cc12` [11/52], the concentration for a half-maximal effect (EC50) (in assay [1]; at full length (FL) LXRβ; at full length (FL) LXRα) was under 100 nM in each case.

Regarding `N#Cc1cccc(C#N)c1-c1c(-c2cccc(-c3c(F)c(F)c(C(=O)O)c(F)c3F)c2)n(S(=O)(=O)c2ccc(C(F)F)cc2)c2ccc(F)cc12` [11/54], the EC50 (in assay [1]; on full length (FL) LXRβ; at full length (FL) LXRα) was under 100 nM each time.

On to `N#Cc1cccc(C#N)c1-c1c(-c2cccc(-c3ccc(C(=O)O)cc3Cl)c2)n(S(=O)(=O)c2ccc(Cl)cc2)c2ccc(F)cc12` [11/55], for which the EC50 (in assay [1]; at full length (FL) LXRβ; at full length (FL) LXRα) was under 100 nM in each case.

In the case of `N#Cc1cccc(C#N)c1-c1c(-c2cccc(-c3ccc(C(=O)O)cc3Cl)c2)n(S(=O)(=O)c2ccc(C(F)F)cc2)c2ccccc12` [11/56], the concentration for a half-maximal effect (EC50) (in assay [1]; at full length (FL) LXRβ; on full length (FL) LXRα) was under 100 nM each time.

One may read the EC50 as the concentration that produces a half-maximal response.
